According to patent publication US7476729B2, “Dbait and uses thereof” (Institut Curie, priority 2003, dated 2009):

Columns and labels:
[1] = system: Hep2 xenografted tumors; test: Radiosensitization of Hep2 (HNSCC) tumors xenografted on nude mice; assay type: in vivo; parameters: Mean TGD: unit not given here
Method: In vivo activity of Dbait molecules in association with radiotherapy was assessed by using nude mice xenografted with human tumors by subcutaneous injection of radio-resistant cell lines (Hep2 derived from head and neck squmous cell carcinoma, HNSCC) or tumor fragments (previously obtained by subcutaneous injection of the U87 cell lines derived of glioblastoma).
Investigations were mainly carried out on the mice xenografted with radio-resistant human HNSCC tumors in order to establish proof of concept in vivo. Irradiation was performed with γ-rays from a ^137Cs source with appropriate protection of mice in order to perform localized irradiation of tumors. Typical assay condition consists of intratumoral injection of an appropriate preparation of 1 nmole Dbait molecules with transfecting agents (cationic dendrimer (Superefct, Qiagene), dioctadecylamidoglycyl-spermine (DOGS, Polyplus transfection), polyethyleneimine (PEI, Polyplus Transfection) according to manufacturer's instruction, 5 hours prior irradiation. A total dose of 30 Gy was delivered in 5 weeks: i) 3×2 Gy/week (about one every two days); ii) 5 Gy/week; iii) 15 Gy/2 weeks.
The size of tumor was measured 2-3 times a week. Treatment by irradiation and intratumoral injection of MEM medium (the Dbait dilution buffer), was used as a control of irradiation treatment without Dbait. The volume of tumor was calculated ([…], where a=length, b=width). The ratio of volume measured at t time over the initial volume (Vt/Vi) was used as indicator of tumor progression. The mice were followed up to 100 days. At least 4 independent series of six animals were tested.
MEM or Dbait32H (SEQ ID NO: 1) was delivered by intratumoral injection 5 hours prior irradiation. The fractionated irradiation dose (2 Gy) was given one of every two days, three times a week. The treatment lasted 5 weeks totaling 30 Gy irradiation. The dots represent the time course of tumor volume of each mouse. The solid lines are the best polynomial fitting.
Tumor growth was monitored during treatment and after in four groups of 10 animals with different treatments (untreated, treated with Dbait32H (SEQ ID NO: 1) alone, treated by irradiation alone, and the combined Dbait32H (SEQ ID NO: 1) and irradiation). Individual tumor growth is indicated for each animal. The treatment protocol was the same as described in FIG. 4.1. The experiment started when the volume of Hep2 tumors reached 150-200 mm^3. For each treatment session, 20 μg Dbait32H (SEQ ID NO: 1) formulated with polyethyleneimine (PEI, Polyplus Transfection, Strasbourg, France) according to the manufacturer's instruction was injected into tumor 5 hours prior 2 Gy irradiation.
For ethical reason, the animals were sacrificed when their tumors reached 2 cm^3. This end-point was used as death in survival analysis. The treatment protocol was described in FIG. 4.3. The five groups were included: untreated, mock-tranfected and irradiated, treated by combined irradiation and increasing amount of Dbait32H (SEQ ID NO: 1) (20, 60 and 120 μg/session). […] Pictures of tumors representative of the groups (untreated, treated with 20 and 60 μg Dbait32H/session associated with 2 Gy irradiation) which were taken 15 days after beginning of treatment, at the end of treatment (35 days) and 13 days after the end of treatment (35+13 days). They provided clear visual comparison of the benefit of the combined Dbait32H (SEQ ID NO: 1) and irradiation treatment.
Descriptive analyses of the tumor response were performed for each treatment and each tumor type. Day 1 was the day of the first treatment session. All the animals were followed for at least 150 days or until their ethical sacrifice. Median lifetime was estimated according to the Kaplan-Meier method. TGD was calculated by subtracting the mean tumor volume quadrupling time of the control group from tumor volume quadrupling times of individual mice in each treated group. […]

[2] = system: γ-H2AX in Hep2 cells; test: Kinetics of persistence of DSB sites (γ-H2AX) by FACS in irradiated Hep2 cells; assay type: cell-based, human; details: Hep2, 10 Gy, 0 min to 7 days
Method: To investigate the effect of Dbait on ionizing radiation-induced g-H2AX foci formation and loss, Dbait32H-Cy3 (SEQ ID NO: 1) were transfected in the Hep2 cells by superfect (Qiagen). Transfected or untransfected Hep2 cells were irradiated at 10 Gy. Cells were fixed at different times (0 min, 30 min, 1 hour, 5 hours, 24 hours, 48 hours, 72 hours and 7 days). Primary mouse monoclonal antibody for g-H2AX (ser139) (Upstate, Tempcula, Calif., USA) was used in 1/500 dilution and incubated for 2 hours at 0° C., then washed by PBS buffer and incubated with Alexa 488-conjugated second antibody anti mouse IgG (Molecular Probe, Eugene, Oreg., USA) diluted in 1/200 for 1 hour in dark room.

[3] = system: GMA32 cells; test: Clonogenicity (clonal survival) assay in GMA32 cells with irradiation or mitotic inhibitors; assay type: cell-based, Chinese hamster
Method: The GMA32 Chinese hamster fibroblast cells permissive of DNA breaks were maintained in MEM medium (Gibco) supplemented with 1 mM sodium pyruvate, 2 mM glutamine, 1×MEM non essential amino acids, 1× penicillin/streptomycin and 10% horse serum. Typically, 2×10^5 to 4×10^5 cells were seeded in medium without antibiotics, in 5 cm diameter Petri dishes 24 hours before the transfection of different Dbait molecules (4.5 μg) with lipofectamine 2000 (LifeTechnologies) as transfection agent (in a 1:3 ratio), according to the manufacturer's instructions. At the end of the transfection the cells were either irradiated (4 Gy) or treated with mitotic inhibitors: nocodazole (200 nM), navelbine (100 nM) or taxol (200 nM).
About 16 hour later the drug was removed and the cells were allowed to recover. Cell irradiation was performed with γ-rays from a ^137Cs source. After a 24 hours recovery, the cells were collected and used either for FACS, western blot analyses or to determine the clonogenicity (survival) and the effect of each treatment.
The effect of radiosensitization and chemosensitization of Dbait molecules in GMA32 cells was evaluated by clonogenicity (clonal survival) assay. For the clonogenicity assay, serial dilutions were made after counting the cells to seed 5 cm Petri dishes with different amounts of cells. The number of cells range from 100-200 (control cells) to 3000 (transfected or/and treated cells). Ten days after, the cells (forming clone) were fixed with 4% paraformaldehyde (20 minutes), then colored with methylene blue (15 minutes), and the number of clone in each plate (in triplicates) was scored.
These drugs are known as potent inhibitors of either polymerization or depolymerization of microtubules. Dbait32 (SEQ ID NO: 1) and Dait32H (SEQ ID NO: 1) were able to enhance to cytotoxic activity of these mitotic inhibitors.

[4] = Hep2, 15 × 2 Gy, 15 × 20 μg (1 nmole)
[5] = Hep2, 15 × 2 Gy, 15 × 60 μg (3 nmole)
[6] = Hep2, 15 × 2 Gy, 15 × 120 μg (6 nmole)
[7] = Hep2, no irradiation, 15 × 20 μg (1 nmole)
[8] = Hep2, 15 × 2 Gy, 15 × 120 μg (12 nmole)
[9] = Hep2, no irradiation, 15 × 120 μg (12 nmole)

Dbait32H: hairpin double strand DNA with a stem of 32-bp, hexaethyleneglycol linker, phosphorothioate at the free blunt end (DNA ACGCACGGGTGTTGGGTCGTTTGTTCGGATCT; DNA, backbone not given here; hairpin, hexaethyleneglycol loop, 3-bp phosphorothioate at free blunt end)
radiosensitization, tumor growth (Vt/Vi) ([1]; 1 nmole (20 μg) intratumoral 5 hours prior irradiation, 3×2 Gy/week, 5 weeks, versus MEM+3×2 Gy): clearly showed radiosensitization | tumor growth ([1]; 20 μg with PEI intratumoral 5 hours prior 2 Gy, 15 sessions, versus irradiation or Dbait32H alone): greatly reduced | survival (Kaplan-Meier), dose dependence ([1]; 20, 60 and 120 μg/session with 2 Gy irradiation): clear dose-dependent effect | Mean % TGD [1, 4]: 561% | Mean TGD [1, 4]: 49 | Median survival time [1, 4]: 93 days | Relative risk ([1]; Hep2, 15 × 2 Gy, 15 × 20 μg (1 nmole), reference C* (Mock + irradiation)): 0.42 | Mean % TGD [1, 5]: 880% | Mean TGD [1, 5]: >83 | Median survival time [1, 5]: 129 days | Number of cured mice [1, 5]: 3 | Relative risk ([1]; Hep2, 15 × 2 Gy, 15 × 60 μg (3 nmole), reference C* (Mock + irradiation)): 0.28 | Mean % TGD [1, 6]: 952% | Mean TGD [1, 6]: >91 | Median survival time [1, 6]: 150 days | Number of cured mice [1, 6]: 4 | Relative risk ([1]; Hep2, 15 × 2 Gy, 15 × 120 μg (6 nmole), reference C* (Mock + irradiation)): 0.18 | Mean % TGD [1, 7]: 168% | Mean TGD [1, 7]: 7 | Median survival time [1, 7]: 55 days | Relative risk ([1]; Hep2, no irradiation, 15 × 20 μg (1 nmole), reference C (untreated)): 0.62 | NMR imaging: necrotic area ([1]; mid-course (7 sessions), 20 μg/session and 2 Gy/session versus irradiation alone): necrotic area was more important | histology: necrosis and apoptosis ([1]; mid-course treatment (7 sessions), 20 days, combined with irradiation versus irradiation alone): enhancement of necrosis and apoptosis was observed | radiosensitization depending on dwell time between intratumoral injection and ionizing radiation ([1]; xenografted tumors on nude mice): 5 hours>>1 hour | level of γ-H2AX over time (FACS) [2]: remained high and long | chemosensitization (clonal survival) ([3]; GMA32, 200 nM nocodazole, 100 nM navelbine (vinorelbine) or 200 nM taxol (paclitaxel)): chemosensitization was also observed | radiosensitization (clonal survival) ([3]; GMA32, 4 Gy irradiation): radiosensitization to 4 Gy irradiation was observed

Dbait32ss: 32-nt single strand DNA (SEQ ID NO: 1) (DNA ACGCACGGGTGTTGGGTCGTTTGTTCGGATCT; DNA, backbone not given here)
Mean % TGD [1, 8]: 374% | Mean TGD [1, 8]: 29 | Median survival time [1, 8]: 80 days | Relative risk ([1]; Hep2, 15 × 2 Gy, 15 × 120 μg (12 nmole), reference C* (Mock + irradiation)): 0.57 | Mean % TGD [1, 9]: 156% | Mean TGD [1, 9]: 6 | Median survival time [1, 9]: 46 days | Relative risk ([1]; Hep2, no irradiation, 15 × 120 μg (12 nmole), reference C (untreated)): 0.71 | in vivo activity (survival of xenografted animals) ([1]; high dose (15 × 120 μg)): inactive
